In assay [1] the target is T1, MC4R (Homo sapiens, UniProt P32245). In words: Luciferase assay (HEK MC4R-Luc, CRE-LUC). It is filed as cell-based. Further details: expressed in transfected cells. As to conditions: HEK MC4R-Luc cells, 5 h incubation. Here is the method:
In order to measure the agonist ability against MC4R (melanocortin-4 receptor), a cell line that permanently expresses the luciferase gene (CRE-LUC) under the control of MC4R and CRE (cAMP response element) was established. After a mammalian cell expression vector (pCDNA3 (Neo)) (Invitrogen) containing the MC4R gene was prepared, human embryonic kidney (HEK) cell lines were transformed by using Lipofectamine 2000 (Invitrogen) together with a vector (pCRE-Luc)(Stratagen) expressing a luciferase gene (CRE-LUC) under the control of a cAMP response element (CRE). Transformed cell lines (HEK MC4R-Luc) were incubated in a 37° C. incubator in the presence of 5% CO2 for 24 hours by using Dulbecco's Modified Eagles Medium (DMEM) containing 10% Heat-Inactivated Fetal Bovine Serum (GIBCO/BRL). The cell lines were incubated for four days in the presence of Dulbecco's Modified Eagles Medium (DMEM) containing 10 ml of selection medium (10% Heat-Inactivated Fetal Bovine Serum (GIBCO/BRL), 100 unit/ml of penicillin (GIBCO/BRL), 100 unit/ml of streptomycin (GIBCO/BRL), 800 μg/ml of Geneticin (G418) (GIBCO/BRL). The process of removing cells killed by the selection medium by replacing the medium with 10 ml of a new selection medium was repeated three times, once every 4 days. Individual colonies formed by the finally selected and propagated clones were transferred under a microscope to a 24-well cell culture plate containing 1 ml of selection medium per well and incubated for 4 days. Forskolin (SIGMA) was treated to a final concentration of 10 μM, and then incubated for five hours in a 37° C. incubator in the presence of 5% CO2. Each well was treated with 50 μl of a Bright-Glo luciferase reagent (Promega) and left at room temperature for 15 minutes, and then the luminescence of each well was measured by using a luminometer (Victor).
HEK MC4R-Luc cells were added to each well of a 96-well luminometer cell culture plate (Costar) to a size of 2.5×10^4 cells in 100 μl of a culture medium and then incubated in a 37° C. incubator in the presence of 6% CO2 for 18 hours. […] Each well was treated with 50 μl of a Bright-Glo luciferase reagent (Promega) and left at room temperature for five minutes, and then the luminescence of each well was measured by using a luminometer (Victor). […] EC0.5 MSH is expressed as a concentration that induces 50% of the maximum amount of luminescence that can be induced by NDP-α-MSH, and EC50 is expressed as a concentration that induces 50% of the maximum amount of luminescence that can be induced by each agonist. The measurements were measured using statistical software (Prizm).
Target sequence in this assay (P32245 whole entry, species assumed): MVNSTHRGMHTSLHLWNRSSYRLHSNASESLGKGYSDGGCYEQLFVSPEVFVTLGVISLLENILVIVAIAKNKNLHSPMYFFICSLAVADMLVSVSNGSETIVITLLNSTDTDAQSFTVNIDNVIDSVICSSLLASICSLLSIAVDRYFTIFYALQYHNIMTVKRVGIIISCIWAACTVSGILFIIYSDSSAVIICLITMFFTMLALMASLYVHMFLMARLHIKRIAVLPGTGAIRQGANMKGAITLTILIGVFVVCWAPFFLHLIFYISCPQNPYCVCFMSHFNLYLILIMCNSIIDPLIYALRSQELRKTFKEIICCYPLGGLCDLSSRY

Assay [2] has as its target T1, MC4R. In words: Binding affinity, 125I-NDP-α-MSH displacement on membranes. Also on record: expressed in transfected cells; host or cells: HEK-293 cells; membranes collected. Conditions: HEK-293 MC4R membrane, 0.02 nM 125I-NDP-α-MSH. From the text:
Five subtypes of melanocortin receptor (MCR) in vivo are known, and it is known that MC4R, which is Subtype 4, is involved in energy metabolism and weight control. Since other MCR subtypes are involved in the regulation of various functions in vivo such as skin pigmentation, energy homeostasis, and exocrine functions, securing selectivity for MC4R of MC4R agonist compounds is very important in preventing possible side effects in the future. Therefore, the receptor binding abilities of MC4R agonists for each MCR subtype were measured.
After the CHO-K1 cell line expressing human recombinant MC1R and the HEK-293 cell lines expressing MC3R, MC4R and MCSR were established, membranes were collected from each cell line. In a 96-well cell culture plate, 3 μg MC1R membrane and 0.04 nM ^125I-NDP-α-MSH per well were reacted at 37° C. for two hours. 3 μg MC3R and MCSR membrane and 0.035 nM ^125I-NDP-α-MSH were reacted at 37° C. for one hour, and 3.12 μg MC4R membrane and 0.02 nM ^125I-NDP-α-MSH were reacted at 37° C. for two hours. At this time, 25 mM HEPES-KOH adsorption buffer (pH 7.0) containing MCR agonist diluted at each step concentration was added to each well and reacted. The reacted solution was transferred to a filter and washed with an adsorption buffer, and then radioactivity was measured. The value excluding the non-specific binding amount in the presence of 1 μM (MC1R) and 3 μM (MC3R, MC4R, MCSR) of NDP-α-MSH from each total binding amount was used as specific binding amounts of ^125I-NDP-α-MSH. The degree to which the ^125I-NDP-α-MSH specific binding was inhibited by the agonist diluted at each step concentration was measured. IC50 was expressed as the concentration of each agonist that inhibited specific binding of 50% of ^125I-NDP-α-MSH.
Target sequence in this assay (P32245 whole entry): as the sequence (P32245 whole entry, species assumed) above

Assay [3] has as its target T1, MC4R. In words: β-arrestin assay (Pathhunter eXpress U2OS cell line). It is filed as cell-based. Also on record: expressed in transfected cells; host or cells: U2OS (Pathhunter eXpress β-arrestin cell line). As to conditions: U2OS cells, 90 min at 37° C. From the text:
The melanocortin receptor is a type of G-protein coupled receptor (GPCR) and regulates various physiological responses by transducing signals from many neurotransmitters. When GPCR is phosphorylated, β-arrestin is bound to the phosphorylated part of the receptor and plays an important role in activating various signaling pathways in cells through interaction with other proteins. It is known that, when the melanocortin receptor interacts with an agonist, β-arrestin is mobilized and is involved in the β-arrestin-mediated signaling pathway. Therefore, the activity of the melanocortin receptor can be evaluated through the measurement of β-arrestin.
A Pathhunter eXpress β-arrestin cell line (U2OS cell line) in which Prolink (PK)-tagged MC1R, MC3R, MC4R, MC5R and Enzyme acceptor (EA)-tagged β-arrestin were expressed together was established. When the MCR-PK portion of this cell line is activated, β-arrestin-EA is mobilized, and enzyme acceptor (EA) and Prolink (PK), which are the β-galactosidase enzyme fragments, interact. The activated enzyme hydrolyzes the substrate by β-galactosidase activity to produce a chemiluminescent signal, so that the activity can be measured. After the Pathhunter eXpress β-arrestin cell line (U2OS cell line) was incubated, the cells were inoculated into each well of the cell culture plate and incubated for 48 hours in a 37° C. incubator in the presence of 5% CO2. After the incubation, 5 μl of the sample diluted 5 times with buffer was added, the vehicle concentration was set to 1%, and the MC4R agonist compound diluted at each step concentration was added, followed by reaction at 37° C. for 90 minutes. The activity (%) of each agonist compound is expressed as 100%×(average RLU value of sample−average RLU value of vehicle control)/(average maximum value of control ligand−average RLU value of vehicle control), and the value was analyzed by CBIS data analysis suite (ChemInnovation, CA).
Target sequence in this assay (P32245 whole entry): as the sequence (P32245 whole entry, species assumed) above
Target sequence in this assay (P32121 whole entry partner): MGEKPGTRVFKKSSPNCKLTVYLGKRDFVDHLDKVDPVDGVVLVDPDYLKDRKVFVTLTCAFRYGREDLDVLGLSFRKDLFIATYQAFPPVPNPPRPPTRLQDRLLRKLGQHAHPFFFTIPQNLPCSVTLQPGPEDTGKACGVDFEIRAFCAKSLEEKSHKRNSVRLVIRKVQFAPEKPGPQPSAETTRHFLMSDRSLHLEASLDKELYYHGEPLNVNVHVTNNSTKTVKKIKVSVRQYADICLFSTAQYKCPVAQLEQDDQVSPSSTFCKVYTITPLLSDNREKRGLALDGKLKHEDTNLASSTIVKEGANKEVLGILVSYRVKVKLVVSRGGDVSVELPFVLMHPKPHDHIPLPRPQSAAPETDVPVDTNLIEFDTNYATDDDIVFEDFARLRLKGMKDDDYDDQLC

Assay [4] addresses T1, MC4R. In words: cAMP assay (cAMP Hunter Gs-coupled CHO-K1 cell line). The class given is cell-based. Further details: expressed in transfected cells; host or cells: CHO-K1 (cAMP Hunter Gs-coupled cell line). Conditions: CHO-K1 cells overexpressing MC4R, 30 min at 37° C. An excerpt: The melanocortin receptor is a type of G-protein coupled receptor (GPCR), and the main role of G-protein is to activate secondary transducers to regulate cellular responses to many physiological stimuli through signal transduction. MC4R is a Gs-coupled receptor, and it is known that if MC4R interacts with an agonist, adenylate cyclase (AC) is activated to increase the concentration of cyclic AMP (cAMP), which is one of the secondary transducers in cells. Therefore, it is possible to evaluate the activity of melanocortin receptors by measuring the generation of cAMP signals.
After cAMP Hunter Gs-coupled cell lines (CHO-K1 cell line) in which each of MC1R, MC3R, MC4R and MCSR was overexpressed were established so that the increase in the cAMP level in cells due to agonist reaction was measurable, the cells were inoculated into each well of a white cell culture plate and incubated for 24 hours in a 37° C. incubator in the presence of 5% CO2. After the incubation, the medium was removed, and 15 μl of a 2:1 HBBS/10 mM HEPES:cAMP XS+Ab reagent was added. After 5 μl of the sample diluted 4 times with buffer was added, the vehicle concentration was set to 1%, and the MC4R agonist compound diluted at each step concentration was added, followed by reaction at 37° C. for 30 minutes. The activity (%) of each agonist compound is expressed as 100%×(average RLU value of sample−average RLU value of vehicle control)/(average RLU value of max control−average RLU value of vehicle control), and the value was analyzed by CBIS data analysis suite (ChemInnovation, CA).
Target sequence in this assay (P32245 whole entry, species assumed): as the sequence (P32245 whole entry, species assumed) above

The subject of assay [5] is mouse obesity model induced by high fat diet. In words: Mouse obesity model induced by high fat diet. As to conditions: Day 12, 10 mg/kg, oral once a day, high-fat-diet obese mice. It is filed as in vivo, C57BL/6Ntaconic mice. As to the method: The effect of melanocortin-4 receptor agonists on obesity was evaluated by using the mouse obesity model induced with a high fat diet.
Five-week-old male C57BL/6Ntaconic mice were fed with a 60 kcal % fat diet (D12492, Research Diet.) for 15 weeks to induce obesity. The compound of Example 1, the compounds of the comparative examples (A95 and A96), and sibutramine as a positive control were prepared in distilled water and orally administered to […] mouse obesity models induced by a high-fat diet once a day from day 1 to day 16. From Day 1 to Day 16, the body weight was measured once a day, the dietary intake was measured five times a week, and drinking water intake was measured twice a week. Blood glucose and glycated hemoglobin were measured on Day 15, and all animals were sacrificed on Day 17. Blood was collected through the abdominal vena cava, and the liver and epididymal adipose tissues were removed and weighed. The collected blood was placed in a heparin tube and centrifuged to separate plasma, and then plasma biochemical analysis was performed.

Structures can show the parent of a compound that is named as a salt.

For `CCC(=O)N([C@H]1C[C@@H](C(=O)N2CCOCC2)N(C(=O)[C@@H]2CN(C(C)(C)C)C[C@H]2c2ccc(Cl)cc2)C1)[C@H]1CC[C@@H](C)CC1` [Example 2, N-((3S,5S)-1-((3S,4R)-1-(tert-butyl)-4-(4-chlorophenyl)pyrrolidine-3-carbonyl)-5-(morpholine-4-carbonyl)pyrrolidin-3-yl)-N-((1s,4R)-4-methylcyclohexyl)propionamide hydrochloride], the concentration for a half-maximal effect (EC50) (as a rule, the midpoint of the concentration-response curve) turned out to be 1.07 nM on MC4R [1], 8.7 nM at MC4R [3] and 50.3 nM at MC4R [4]. For the same compound, the Ki (usually a measure of affinity in units of concentration, obtained from inhibition or displacement) at MC4R [2] worked out at 110 nM.

As to `CC(C)(C)C(=O)N([C@H]1C[C@@H](C(=O)N2CCOCC2)N(C(=O)[C@@H]2CN(C(C)(C)C)C[C@H]2c2ccc(Cl)cc2)C1)[C@H]1CC[C@@H](C)CC1` [Example 3, N-((3S,5S)-1-((3S,4R)-1-(tert-butyl)-4-(4-chlorophenyl)pyrrolidine-3-carbonyl)-5-(morpholine-4-carbonyl)pyrrolidin-3-yl)-N-((1s,4R)-4-methylcyclohexyl)pivalamide hydrochloride], the EC50 at MC4R [1] worked out at 0.675 nM; on MC4R [3], 3.3 nM; at MC4R [4] it was 22.7 nM. Also, the affinity at MC4R [2] corresponds to a Ki of 24 nM.

For `CC(C)CC(N(C)C)C1(c2ccc(Cl)cc2)CCC1` (stereo not drawn) [Sibutramine], in assay [5], the “Difference in weight change rate to vehicle” value was −6.8%.
